Results taken from PMC10092094 (Chemmedchem, 2022).

Key:
[1] = molecular target: T1, OGG1 (Homo sapiens, UniProt O15527); experiment: biochemical
[2] = molecular target: T1, OGG1; experiment: Differential scanning fluorimetry; format: binding
[3] = IC50 (CI95), biochemical inhibition, confidence interval 95 in parentheses
[4] = IC50, biochemical inhibition, single replicate

T1 sequence (O15527 whole entry): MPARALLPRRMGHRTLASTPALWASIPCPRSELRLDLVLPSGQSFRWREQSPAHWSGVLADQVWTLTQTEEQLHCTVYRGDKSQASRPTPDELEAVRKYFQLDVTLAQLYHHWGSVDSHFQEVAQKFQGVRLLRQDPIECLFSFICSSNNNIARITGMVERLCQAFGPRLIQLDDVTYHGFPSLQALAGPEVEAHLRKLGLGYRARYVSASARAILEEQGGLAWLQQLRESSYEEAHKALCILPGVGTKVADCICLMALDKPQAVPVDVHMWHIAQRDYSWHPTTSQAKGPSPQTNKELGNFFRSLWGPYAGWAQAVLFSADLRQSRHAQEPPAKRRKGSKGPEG

SMILES	IC50 [1, 3] [µM]	DSF stabilization (ΔT) [2] [K]	IC50 ([1]; IC50 of HTS hit, concentration-response of screening hits) [µM]	IC50 [1, 4] [µM]
O=C(Nc1ccc(I)cc1)N1CCC(n2c(=O)[nH]c3c(F)cccc32)CC1 [Compound 24, 4‐(4‐fluoro‐2‐oxo‐2,3‐dihydro‐1H‐1,3‐benzodiazol‐1‐yl)‐N‐(4‐iodophenyl)piperidine‐1‐carboxamide]	2.2	3.9		
Cc1cccc2c1[nH]c(=O)n2C1CCN(C(=O)Nc2ccc(I)cc2)CC1 [Compound 20, 4‐(4‐methyl‐2‐oxo‐2,3‐dihydro‐1H‐1,3‐benzodiazol‐1‐yl)‐N‐(4‐iodophenyl)piperidine‐1‐carboxamide]	0.63	3.8		
O=C(Nc1ccc(Cl)cc1)N1CCC(n2c(=O)[nH]c3ccccc32)CC1 [Compound 6, N‐(4‐chlorophenyl)‐4‐(2‐oxo‐2,3‐dihydro‐1H‐1,3‐benzodiazol‐1‐yl)piperidine‐1‐carboxamide]	5.5	4.6	10	
O=C(Nc1ccc(Br)cc1)N1CCC(n2c(=O)[nH]c3cc(Cl)ccc32)CC1 [Compound 17, 4‐(5‐chloro‐2‐oxo‐2,3‐dihydro‐1H‐1,3‐benzodiazol‐1‐yl)‐N‐(4‐bromophenyl)piperidine‐1‐carboxamide]		4.1		1.6
COc1ccc(NC(=O)N2CCC(n3c(=O)[nH]c4c(Br)cccc43)CC2)cc1 [Compound 47, 4‐(4‐bromo‐2‐oxo‐2,3‐dihydro‐1H‐1,3‐benzodiazol‐1‐yl)‐N‐(4‐methoxyphenyl)piperidine‐1‐carboxamide]		4.1		3.1
O=C(Nc1ccc(C(F)(F)F)cc1)N1CCC(n2c(=O)[nH]c3c(Br)cccc32)CC1 [Compound 49, 4‐(4‐bromo‐2‐oxo‐2,3‐dihydro‐1H‐1,3‐benzodiazol‐1‐yl)‐N‐[4‐(trifluoromethyl)phenyl]piperidine‐1‐carboxamide]	1.6	1.6		
Cc1cccc2[nH]c(=O)n(C3CCN(C(=O)Nc4ccc(I)cc4)CC3)c12 [Compound 23, 4‐(7‐methyl‐2‐oxo‐2,3‐dihydro‐1H‐1,3‐benzodiazol‐1‐yl)‐N‐(4‐iodophenyl)piperidine‐1‐carboxamide]		2.2		8.7
O=C(Nc1ccc(Cl)c(Cl)c1)N1CCC(n2c(=O)[nH]c3c(Br)cccc32)CC1 [Compound 53, 4‐(4‐bromo‐2‐oxo‐2,3‐dihydro‐1H‐1,3‐benzodiazol‐1‐yl)‐N‐(3,4‐dichlorophenyl)piperidine‐1‐carboxamide]	0.44	3.1		
O=C(Nc1ccc(Br)cc1)N1CCC(n2c(=O)[nH]c3ccccc32)CC1 [Compound 7, N‐(4‐bromophenyl)‐4‐(2‐oxo‐2,3‐dihydro‐1H‐1,3‐benzodiazol‐1‐yl)piperidine‐1‐carboxamide]	7	2.1		
Cc1ccc2c(c1)[nH]c(=O)n2C1CCN(C(=O)Nc2ccc(I)cc2)CC1 [Compound 21, 4‐(5‐methyl‐2‐oxo‐2,3‐dihydro‐1H‐1,3‐benzodiazol‐1‐yl)‐N‐(4‐iodophenyl)piperidine‐1‐carboxamide]	1.7	3.8		
O=C(Nc1cccc(F)c1)N1CCC(n2c(=O)[nH]c3cc(Cl)ccc32)CC1 [Compound 12, 4‐(5‐chloro‐2‐oxo‐2,3‐dihydro‐1H‐1,3‐benzodiazol‐1‐yl)‐N‐(3‐fluorophenyl)piperidine‐1‐carboxamide]	35.1	2.4		
O=C(Nc1ccc(Br)cc1)N1CCC(n2c(=O)[nH]c3c(Br)cccc32)CC1 [Compound 44, 4‐(4‐bromo‐2‐oxo‐2,3‐dihydro‐1H‐1,3‐benzodiazol‐1‐yl)‐N‐(4‐bromophenyl)piperidine‐1‐carboxamide]	0.19	4.2		
CC(C)(C)c1ccc(NC(=O)N2CCC(n3c(=O)[nH]c4c(Br)cccc43)CC2)cc1 [Compound 46, 4‐(4‐bromo‐2‐oxo‐2,3‐dihydro‐1H‐1,3‐benzodiazol‐1‐yl)‐N‐(4‐tert‐butylphenyl)piperidine‐1‐carboxamide]	46	0.0		
COc1cc(NC(=O)N2CCC(n3c(=O)[nH]c4c(Br)cccc43)CC2)ccc1C [Compound 55, 4‐(4‐bromo‐2‐oxo‐2,3‐dihydro‐1H‐1,3‐benzodiazol‐1‐yl)‐N‐(3‐methoxy‐4‐methylphenyl)piperidine‐1‐carboxamide]	0.2	1.8		
O=C(Nc1ccc(Cl)cc1)N1CCC(n2c(=O)[nH]c3cc(Cl)ccc32)CC1 [Compound 16, 4‐(5‐chloro‐2‐oxo‐2,3‐dihydro‐1H‐1,3‐benzodiazol‐1‐yl)‐N‐(4‐chlorophenyl)piperidine‐1‐carboxamide]	2	3.8		
O=C(Nc1ccc(Cl)cc1)N1CCC(n2c(=O)[nH]c3c(Br)cccc32)CC1 [Compound 43, 4‐(4‐bromo‐2‐oxo‐2,3‐dihydro‐1H‐1,3‐benzodiazol‐1‐yl)‐N‐(4‐chlorophenyl)piperidine‐1‐carboxamide]	0.35	4.2		
COc1ccc(NC(=O)N2CCC(n3c(=O)[nH]c4c(Br)cccc43)CC2)cc1OC [Compound 56, 4‐(4‐bromo‐2‐oxo‐2,3‐dihydro‐1H‐1,3‐benzodiazol‐1‐yl)‐N‐(3,4‐dimethoxyphenyl)piperidine‐1‐carboxamide]	4.4	5.1		
COc1cccc2c1[nH]c(=O)n2C1CCN(C(=O)Nc2ccc(I)cc2)CC1 [Compound 27, 4‐(4‐methoxy‐2‐oxo‐2,3‐dihydro‐1H‐1,3‐benzodiazol‐1‐yl)‐N‐(4‐iodophenyl)piperidine‐1‐carboxamide]	0.91	4.2		
